Reference: US20030134305A1, “Method for the enumeration of mammalian micronucleated erythrocyte populations with a single-laser flow cytometer” (priority 2001, published 2003)
Several values for one entry are separate records, joined by “and”; a condition that tells them apart may be missing. Identical values can stand only once.

Tested on: rat peripheral blood erythrocyte populations
Settings: male rat, oral, 10 mg/kg body weight/day for 6 days
[1] = tail vein blood ~24 hours after final administration, single replicate, 10 mg/kg/day

Protocol: Approximately 24 hours after the sixth and final administration, blood was collected from the tail vein after a brief warming period under a heat lamp. Blood was maintained in a sodium heparin solution (500 USP units heparin/ml PBS) at room temperature until samples were fixed with −80° C. methanol. The fixed blood samples were divided into several aliquots and were coded for single-blind analysis. […] Pellets were tapped loose and 40 μl of each cell suspension was transferred to tubes containing 100 μl labeling solution (1000 μl HBSS with 0.5% fetal bovine serum plus 5 μl anti-rat CD71-PE plus 20 μg RNase A). Cells were then incubated for 30 minutes at 4° C. and then 45 minutes at 37° C. Unbound antibody was washed by adding 3 ml HBSS plus 0.5% fetal bovine serum and centrifuging for 5 minutes at about 600×g. Supernatants were aspirated, and cell pellets were tapped loose. Cells were resuspended with 1 ml HBSS containing 10^−5 dilution of SYTOX Green nucleic acid dye. Sufficient time was allowed for the nucleic acid dye to load and equilibrate with the cells (about 15 minutes at 4° C.). Cells labeled with anti-CD71-PE and stained with SYTOX Green were analyzed with a FACSCalibur flow cytometer (488 nm excitation). The frequencies of RET^CD71+, MN-RET^CD71+ and MN-NCEs were determined. As commonly practiced by flow cytometry operators, events were gated on light scatter characteristics, and in this way subcellular debris or cellular aggregates were excluded from analysis. […] For these analyses, the stop mode was the acquisition of 20,000 RETs per replicate.

## O=P1(N(CCCl)CCCl)NCCCO1 (centres unmarked) [cyclophosphamide]
Tail vein blood ~24 hours after final administration, single replicate, 20,000 RETs per replicate
  % RET^CD71+ (CD71-positive reticulocytes): 2.66% and 2.72% and 2.57%
[1]
  % MN-NCE (micronucleated normochromatic erythrocytes): 0.05% and 0.04% (2×)
  % MN-RET^CD71+ (micronucleated CD71-positive reticulocytes): 0.73% and 0.64% and 0.63%
Avg. of 3 replicates
  % MN-NCE (micronucleated normochromatic erythrocytes), Avg.: 0.04%
  % MN-RET^CD71+ (micronucleated CD71-positive reticulocytes), Avg.: 0.67%
  % RET^CD71+ (CD71-positive reticulocytes), Avg.: 2.65%
Result in words
  DNA-breaking activity: MN-RET^CD71+ frequency versus water-treated rat: increased
  cytostatic effect: RET^CD71+ frequency versus water-treated rat: decreased
